Where two headings read alike, the source gives them in different places.
Tests used:
hippocampal neurons [1] = format: cell-based, Sprague-Dawley rat; details: 1 μM compound
Experimental: Hippocampal neurons were obtained from embryonic day 17 Sprague-Dawley rats. The brains were removed and the hippocampus dissected, placed in ice-cold Leibovitz L-15 medium, carefully stripped of any remaining meninges, and minced into small pieces using scissors. The tissue was rinsed with calcium-magnesium-free Hanks' Balanced Salt Solution and incubated with 0.25% trypsin (Worthington), 40 μg/ml DNAase (Sigma) for 30 minutes at 36° C. Following incubation, the cells were rinsed with 10% serum-containing medium and dissociated by gentle trituration using a reduced bore diameter Pasteur pipet. The cells were plated on a polylysine-coated (0.5 rg/ml, Sigma) 96-well microtiter plates at 30,000 cells/well. Cells were maintained in fluorodeoxyuridine (5 μM) containing chemically defined medium [Bottenstein, J., Sato, G., "Growth of a Rat Neuroblastoma Cell Line in Serum-free Supplemented Medium", Proc. Nat'l. […]
The neuronal survival assay utilized the compound MTT [3-(4,5-dimethylthiazol-2-yl)-2,5-diphenyl tetrazolium bromide], a pale yellow substrate that is cleaved by the mitochondrial enzyme succinate-dehydrogenase to yield a dark blue formazan product. […] The precipitate was then solubilized using 0.08N HCl/isopropanol mixture and the absorbance measured with an ELISA plate reader (Dynatech MR600) using a test wavelength of 570 nm and a reference wavelength of 630 nm. […]

KA (kainate) receptor = assay: [3H]kainate receptor binding assay, synaptic plasma membranes; details: [3H]kainate 0.5 nM, 0-4° C., 60 min
Experimental: (§1) Synaptic plasma membranes (SPM) were prepared as previously described [Monahan, J. B. and Michel, J., "Identification and Characterization of an N-methyl-D-aspartate-specific L[^3 H]glutamate Recognition Site in Synaptic Plasma Membranes, J. Neurochem., 48, 1699-1708 (1987)]. The SPM were stored at a concentration of 10-15 mg/ml in 0.32M sucrose, 0.5 mM EDTA, 1 mM MgSO4, 5 mM Tris/SO4, pH 7.4, under liquid nitrogen. The identity and purity of the subcellular fractions were confirmed by both electron microscopy and marker enzymes. Protein concentrations were determined by using a modification of the method of Lowry [Ohnishi, S. T. and Barr, J. K., "A Simplified Method of Quantitating Proteins Using the Biuret and Phenol Reagents", Anal. Biochem., 86, 193-197 (1978)].
The SPM were treated identically for the [^3 H]AMPA (QUIS), [^3 H]kainate and sodium-dependent L-[^3 H]-glumatate binding assays. The SPM were thawed at room temperature, diluted twenty-fold with 50 mM Tris/acetate, pH 7.4, incubated at 37° C. for 30 minutes, and centrifuged at 100,000 g for 15 minutes. The dilution, incubation, and centrifugation was repeated a total of three times.
(§2) The basic procedure for the receptor subclass binding assays was similar. This general method involved adding the radioligand (12.5 nM L-[^3 H]glutamate; 0.5 nM [^3 H]kainate or 10 nM [^3 H]AMPA) to the appropriate concentration of the test compound and initiating the assay by the addition of ice cold synaptic plasma membranes (0.2-0.45 mg). The binding assays were performed in 1.5 mL centrifuge tubes with the total volume adjusted to 1.0 mL. .Additions of test compounds were made in 50 mM Tris/acetate, pH 7.4 and incubations were carried out at 0°-4° C. The incubation time for the NMDA and the AMPA binding assays was 10 minutes, for the kainate binding assay 60 minutes and for the sodium-dependent glutamate binding assay 15 minutes. The AMPA binding assay contained 100 mM KSCN and the sodium-dependent glutamate binding assay contained 150 mM sodium acetate in addition to the previously described reagents.
(§3) To terminate the incubation, the samples were centrifuged for 15 minutes at 12,000 g and 4° C. in a Beckman Microfuge 12. The supernatant was aspirated and the pelleted membranes dissolved in Beckman BTS-450 tissue solubilizer for a minimum of 6 hours at room temperature. Beckman MP scintillation cocktail containing 7 mL/1 acetic acid was then added and the samples counted on a Beckman LS 5800 or 3801 liquid scintillation counter with automatic corrections for quenching and counting efficiency.
(§4) Nonspecific binding was defined as the residual binding in the presence of either excess L-glutamate (0.1-0.4 mM), kainate (0.01 mM), or NMDA (0.5 mM), and was 15-25% of the total binding in the NMDA binding assay, 19-27% in the AMPA binding assay, 20-30% in the kainate binding assay and 10-15% in the sodium-dependent binding assay. Radioligand binding to the synaptic plasma membranes was analyzed using Scatchard and Hill transformations and the Ki values of the compounds determined using logit-log transformations. Calculations and regression analysis were performed using templates developed for Lotus 1, 2, 3 as previously described [Pullan, L. M. "Automated Radioligand Receptor Binding Analysis with Templates for Lotus", Computer Appln. Biosci., 3 131 (1987)]. Binding results are reported in Table II for example compounds of the invention. […]

NMDA receptor = assay: NMDA-specific L-[3H]glutamate receptor binding assay, synaptic plasma membranes; details: L-[3H]glutamate 12.5 nM, Triton X-100 treated SPM, 0-4° C., 10 min
Experimental: as §1
Prior to use in the NMDA-specific L-[^3 H]glutamate binding assay the SPM were thawed, diluted twenty fold with 50 mM Tris/acetate, pH 7.4 containing 0.04% (v/v) Triton X-100, incubated for 30 minutes at 37° C. and centrifuged as described above. The Triton X-100 treated membranes were washed with 50 mM Tris/acetate, pH 7.4 and centrifuged at 100,000 g for 15 minutes a total of four times.
as §2, §3, §4

CD-1 mouse = assay: In Vivo 3-MPA-Induced Convulsions (tonic hindlimb extension); details: Mus musculus
Experimental: In the CD-1 mouse, i.p. injection of 3-MPA produces clonic seizures, tonic hindlimb extension and death. Seizures begin within 2-3 minutes after injection. The dose-response for induction of tonus by 3-MPA is unusual. The incidence of tonus increases rapidly from 35 to 50 mg/kg and remains constant at a less than maximal level over a broad dose range. 3-MPA doses from 50 to 150 mg/kg produce tonus in approximately 75% of the treated mice. The incidence of death over this dose range is variable and less than maximal.
In order to test for antagonism of 3-MPA-induced tonus, the lowest dose of 3-MPA that produced tonus consistently in 75% of the animals (50 mg/kg i.p.) was chosen. Test compounds were administered subcutaneously 30-40 minutes prior to i.p. administration of 3-MPA. Immediately after 3-MPA administration, each mouse was placed in a small cage made of steel rods. The mice were then observed for the presence or absence of tonic hindlimb extension. Reduction (from 75%) in the incidence of tonic hindlimb extension was considered protection from 3-MPA-induced convulsions. The dose of the test compound varied using groups of ten mice per dose until dose response curves are constructed, and ED50 's are calculated.

hippocampal neurons [2] = assay: Glutamate Toxicity Survival Assay, cultured hippocampal neurons (MTT); format: cell-based, Sprague-Dawley rat; details: 5 μM compound
Experimental: Hippocampal neurons were obtained from embryonic day 17 Sprague-Dawley rats. The brains were removed and the hippocampus dissected, placed in ice-cold Leibovitz L-15 medium, carefully stripped of any remaining meninges, and minced into small pieces using scissors. […] Following incubation, the cells were rinsed with 10% serum-containing medium and dissociated by gentle trituration using a reduced bore diameter Pasteur pipet. The cells were plated on a polylysine-coated (0.5 rg/ml, Sigma) 96-well microtiter plates at 30,000 cells/well.
The neuronal survival assay utilized the compound MTT [3-(4,5-dimethylthiazol-2-yl)-2,5-diphenyl tetrazolium bromide], a pale yellow substrate that is cleaved by the mitochondrial enzyme succinate-dehydrogenase to yield a dark blue formazan product. This process requires active mitochondria, present only in live cells. Cultures of hippocampal neurons grown in 96-well plates were incubated with 1 mg/ml MTT at 36° C. in a 10% CO2 -in-air incubator for 30-60 minutes. At the end of the incubation, a dark blue precipitate outlined only viable cells. The precipitate was then solubilized using 0.08N HCl/isopropanol mixture and the absorbance measured with an ELISA plate reader (Dynatech MR600) using a test wavelength of 570 nm and a reference wavelength of 630 nm. The resulting optical density is directly proportional to the number of viable cells.

Q: `NC(C(=O)O)c1ccc(CP(=O)(O)O)cc1` (stereo not drawn) [Example VI, 4-(Phosphonomethyl)phenylglycine] was tested. Which “protection of neurons from sodium azide toxicity” value (hippocampal neurons [1]) did it give?
A: significant protection

Q: What about the “Receptor binding, KA (Ki)” value (KA (kainate) receptor) of the same compound?
A: > 300 µM

Q: And the Ki (NMDA receptor)?
A: 3.9 µM

Q: What about the ED50 (CD-1 mouse; po, i.g., 3-MPA 50 mg/kg i.p., read-out: 3-MPA Convulsions i.g. (ED50)) of the same compound?
A: 300 mg/kg

Q: And the ED50 (CD-1 mouse; sc, s.c. 30-40 minutes prior to 3-MPA 50 mg/kg i.p., read-out: 3-MPA Convulsions s.c. (ED50))?
A: 6 mg/kg

Q: What about the “protection of neurons from glutamate toxicity” value (hippocampal neurons [2]) of the same compound?
A: Significant protection
